Legend:
[1] = test system: carrageenin-induced paw edema; experiment: Carrageenin-induced paw edema rat model; assay type: in vivo; details: for mean reduction in edema: 3 hrs after injection of carrageenin, FIG. 7
Text: As indicated above, one embodiment of the present invention is the use of salicylamine to treat inflammation. […] The carrageenin-induced paw edema rat model has been probably the most utilized animal model to screen for potency of NSAIDs and other antiinflammatory compounds to inhibit inflammation for decades. For example, see Proc Soc Exp Biol Med 111:544 in 1962 by Winter C A et. al., entitled: “Carrageenin-induced edema of the hind paw of the rat as an assay for antiinflammatory drugs”. Importantly, it has been shown that this model is one of the most robust predictors of clinical potency of NSAIDs^54.
Our initial experiments tested the ability of a single dose of salicylamine (200 mg/kg), administered intraperitoneally, to reduce paw edema at various time points. Carrageenan (100 μl of a 1% solution in saline) was injected into the hind right footpad. Footpad volume was measured in a water displacement plethysmometer before injection of carrageenin and at 2 hr, 3 hr, and 4 hr post-carrageenin. Edema was calculated as footpad volume change (ml) as a percentage of original paw volume for each individual animal.
The efficacy an analog of salicylamine, 5-methyl-salicylamine, to inhibit carrageenin-induced paw edema was accessed at 3 hrs after injection of carrageenin at two doses, 200 and 100 mg/kg ip (FIG. 7).

[2] = test system: NF-κB; experiment: LPS-induced NF-κB expression in NF-κB reporter macrophages (luciferase reporter assay); assay type: cell-based; details: varying concentrations, FIG. 9
Text: The effect of γ-KAs and salicylamine on induction of NF-κB was explored using a novel luciferase reporter assay to quantitatively monitor the induction of expression of NF-κB both in vitro in cells and in vivo^55; 56. NF-κB is required for maximal induction of many cytokines which are thought to be important in the generation of the acute inflammatory responses^57. Accordingly, the downstream effects of an agent that suppresses the induction of NF-κB would be a reduction in the level of inflammation. The first question we asked was does exposure of cells to γ-KAs induce the expression of NF-κB using the luciferase reporter assay mentioned above. […] The abbreviation RLU in this figure stands for Relative Light Units that were measured by luciferase assay.
Another embodiment of the present invention is treatment with varying concentrations of salicylamine (SA) would suppress lipopolysaccharide (LPS) induced expression of NF-κB in NF-κB reporter macrophages.

[3] = test system: cells exposed to a lethal concentration of the oxidant t-butylhydroperoxide; experiment: Protection of cells against a lethal concentration of t-butylhydroperoxide (FIG. 5); assay type: cell-based
Text: One example is shown in FIG. 5, where cells are exposed to a lethal concentration of the oxidant t-butylhydroperoxide. […] Accordingly, we suspected that the γ-KAs generated by the COX pathways would likely be very pro-inflammatory, which might explain the underlying mechanism by which NSAID's exert some their anti-inflammatory effects.

[4] = test system: COX enzymes; details: cited from earlier work
[5] = Reactivity of scavenger with γ-KAs relative to lysine; details: more reactive than lysine
Text: Other embodiments of the present invention include the use of analogs of pyridoxamine that are less polar but retain the critical molecular structure of this molecule responsible for intercepting γ-KAs^49. One example is 2-hydroxy-benzylamine (salicylamine, SA) which is 980 times more reactive than lysine with γ-KAs.
It is important to emphasize that the use of salicylamine is one example of the present invention. Other embodiments include compounds that intercept γ-KA scavengers on various biological processes, their analogs and salt forms thereof. Different non-limiting examples of compounds of the present invention are listed below, which intercept γ-KAs with varying degrees of hydrophilicity. Additionally, to solubilize the more hydrophobic compounds, they have been converted them to an acetate salt. These react with γ-KAs in vitro at a rate more than 2 orders of magnitude greater than the potency of the reaction of γ-KAs with the ε-amine of lysine^49. […] Included are analogs, salts, and pharmaceutical compositions comprising compounds that intercept γ-KA scavengers on various biological processes.

[6] = test system: neutrophil cell counts in lung bronchoalveolar lavage fluid; experiment: Neutrophil cell counts in lung bronchoalveolar lavage fluid of LPS-injected mice; assay type: in vivo; details: ip at 1 hr, 3 hrs, 5 hrs after LPS; determined 8 hrs after LPS; FIG. 11
Protocol: An in vivo experiment was performed to explore whether treatment with salicylamine would down regulate the activity of NF-kB in animals injected with LPS. The animals we used were mice with a luciferase NF-kB reporter gene developed by Dr. Timothy Blackwell mentioned previously. LPS was injected into mice and salicylamine was injected intraperitoneally at 1 hr, 3 hrs, and 5 hrs after the LPS injection. Lung NF-kB luciferase assay and neutrophil cell counts in lung bronchoalveolar lavage fluid (BAL) were then determined 8 hrs after the LPS injection. There was a reduction in both (a) activity of NF-kB (FIG. 10) (b) and neutrophil cell counts (FIG. 11), both of which are indicative of a pronounced anti-inflammatory effect of salicylamine treatment in these animals.

[7] = test system: hAPO4 mice; experiment: Cognitive deficits in hAPO4 mouse model of human Alzheimer's disease; assay type: in vivo
Text: The present inventors have shown that levels of γ-KA adducts are increased in disease affected areas of whole brain tissue from patients with Alzheimer's disease. […] The present inventors accessed the ability of the γ-KA scavenger salicylamine to prevent the development of cognitive abnormalities in an animal model of human Alzheimer's disease, hAPO4 mice.

[8] = Pharmacokinetics of salicylamine; assay type: in vivo

plasma concentrations compared with tissue concentrations ([8]; in vivo) | half-life ([8]; plasma, read-out: half life (t1/2) in plasma) | SMILES | mean reduction in edema ([1]; 100 mg/kg ip) | mean reduction in edema ([1]; 200 mg/kg ip) | LPS induced expression of NF-κB [2] | inhibition of carrageenin-induced paw edema ([1]; single dose 200 mg/kg intraperitoneally, 2 hr, 3 hr, 4 hr post-carrageenin, FIG. 6) | persistence of decrease in paw edema after injection of carrageenin ([1]; single intraperitoneal injection, 200 mg/kg) | protection against cell death [3] | inhibition of COX (cyclooxygenase) enzymes [4] | reactivity with γ-KAs relative to lysine [5] | neutrophil cell counts in BAL [6] | prevention of development of cognitive deficits [7]
– | – | Cc1ccc(O)c(CN)c1 [5-methyl-salicylamine] | 29% | 60% | – | – | – | – | – | – | – | –
lower than tissue concentrations | ~1 h | NCc1ccccc1O [salicylamine, 2-hydroxy-benzylamine] | – | – | concentration dependent stepwise reduction | marked inhibition | at least 4 hrs | almost completely protected against cell death | None of the compound listed below, including salicylamine, inhibit cyclooxygenase enzymes | 980 times | reduction | almost completely prevented
